Data as given in patent US11890288B2, “Sulfonamide or sulfinamide compound having effect of inducing BRD4 protein degradation and pharmaceutical use thereof” (MITSUBISHI TANABE PHARMA CORPORATION, priority 2020, dated 2024).

How the values were obtained:
[1] = test system: human prostate cancer LNCaP cells; experiment: Cytotoxic action on LNCaP cells (WST-8, 96 hr); assay type: cell-based; details: 96 hr culture
Procedure, shortened: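 Overnight pre-culture (10% FBS/RPMI1640, 37° C, 5% CO2) → compound from DMSO stock diluted in medium → 96 hr → WST-8 viable count. IC50 = conc. at 50% survival vs untreated, linear interpolation. (+)-JQ1 as positive control.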

[2] = molecular target: BRD4 protein (Homo sapiens (Human), UniProt O60885); experiment: BRD4 protein degradation inducing action in LNCaP cells (immunofluorescence, 6 hr); assay type: cell-based; details: anti-BRD4 fluorescence intensity
Procedure, shortened: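 LNCaP cells in 10% FBS/RPMI1640 exposed to compound for 6 hr, fixed, permeabilized and immunostained for BRD4 with Alexa Fluor 546 secondary; fluorescence (ex 560, em 572 nm) read by imaging. DC50 = concentration giving 50% of untreated signal, interpolated linearly between the two bracketing points.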

SMILES | DC50 [2] [pM] | IC50 [1] [pM]
COC(=O)C[C@@H]1N=C(c2ccc(-c3ccc(C(=O)N[C@H](C)c4ccc(S(=O)(=O)Nc5ccc(C)c6c(C#N)c[nH]c56)cc4)c(Cl)c3)cc2)c2c(sc(C)c2C)-n2c(C)nnc21 [Example 70, methyl [(6S)-4-(3′-chloro-4′-{[(1R)-1-{4-[(3-cyano-4-methyl-1H-indol-7-yl)sulfamoyl]phenyl}ethyl]carbamoyl}[1,1′-biphenyl]-4-yl)-2,3,9-trimethyl-6H-thieno[3,2-f][1,2,4]triazolo[4,3-a][1,4]diazepin-6-yl]acetate] | 130 | 230
CCc1ccc(NS(=O)(=O)c2ccc([C@@H](C)NC(=O)c3ccc(-c4ccc(C5=N[C@@H](CC(=O)OC)c6nnc(C)n6-c6sc(C)c(C)c65)cc4)cn3)cc2)c2[nH]cc(C#N)c12 [Example 109, methyl {(6S)-4-[4-(6-{[(1R)-1-{4-[(3-cyano-4-ethyl-1H-indol-7-yl)sulfamoyl]phenyl}ethyl]carbamoyl}pyridin-3-yl)phenyl]-2,3,9-trimethyl-6H-thieno[3,2-f][1,2,4]triazolo[4,3-a][1,4]diazepin-6-yl}acetate] | 82 | 360
CCc1ccc(NS(=O)(=O)c2ccc([C@@H](C)NC(=O)c3ccc(-c4ccc(C5=N[C@@H](CC(=O)OC)c6nnc(C)n6-c6sc(C)c(C)c65)cc4)c(F)c3)cc2)c2[nH]cc(C#N)c12 [Example Compound 121, methyl [(6S)-4-(4′-{[(1R)-1-{4-[(3-cyano-4-ethyl-1H-indol-7-yl)sulfamoyl]phenyl}ethyl]carbamoyl}-2′-fluoro[1,1′-biphenyl]-4-yl)-2,3,9-trimethyl-6H-thieno[3,2-f][1,2,4]triazolo[4,3-a][1,4]diazepin-6-yl]acetate] | 170 | 220
Cc1sc2c(c1C)C(c1ccc(-c3ccc(C(=O)NCc4ccc(S(=O)(=O)Nc5ccc(C)c6c(C#N)c[nH]c56)cc4)cc3)cc1)=N[C@@H](CC(=O)NCCO)c1nnc(C)n1-2 [Example 37, N-({4-[(3-cyano-4-methyl-1H-indol-7-yl)sulfamoyl]phenyl}methyl)-4′-[(6S)-6-{2-[(2-hydroxyethyl)amino]-2-oxoethyl}-2,3,9-trimethyl-6H-thieno[3,2-f][1,2,4]triazolo[4,3-a][1,4]diazepin-4-yl][1,1′-biphenyl]-4-carboxamide] | 1400 | 3000
COC(=O)C[C@@H]1N=C(c2ccc(-c3cnc(C(=O)N[C@H](C)c4ccc(S(=O)(=O)Nc5ccc(C)c6c(C#N)c[nH]c56)cc4)cn3)cc2)c2c(sc(C)c2C)-n2c(C)nnc21 [Example 103, methyl {(6S)-4-[4-(5-{[(1R)-1-{4-[(3-cyano-4-methyl-1H-indol-7-yl)sulfamoyl]phenyl}ethyl]carbamoyl}pyrazin-2-yl)phenyl]-2,3,9-trimethyl-6H-thieno[3,2-f][1,2,4]triazolo[4,3-a][1,4]diazepin-6-yl}acetate] | 30 | 67
CCc1ccc(NS(=O)(=O)c2ccc([C@@H](C)NC(=O)c3ccc(-c4ccc(C5=N[C@@H](CC(=O)OC(C)(C)C)c6nnc(C)n6-c6sc(C)c(C)c65)cc4)cc3)cc2)c2[nH]cc(C#N)c12 [Example Compound 136, t-butyl [(6S)-4-(4′-{[(1R)-1-{4-[(3-cyano-4-ethyl-1H-indol-7-yl)sulfamoyl]phenyl}ethyl]carbamoyl}[1,1′-biphenyl]-4-yl)-2,3,9-trimethyl-6H-thieno[3,2-f][1,2,4]triazolo[4,3-a][1,4]diazepin-6-yl]acetate] | 250 | 600
COC(=O)NC1N=C(c2ccc(-c3ccc(C(=O)NCc4ccc(S(=O)(=O)Nc5ccc(C)c6c(C#N)c[nH]c56)cc4)cc3)cc2)c2c(sc(C)c2C)-n2c(C)nnc21 (stereo not shown) [Example 36, methyl (4-{4′-[({4-[(3-cyano-4-methyl-1H-indol-7-yl)sulfamoyl]phenyl}methyl)carbamoyl][1,1′-biphenyl]-4-yl}-2,3,9-trimethyl-6H-thieno[3,2-f][1,2,4]triazolo[4,3-a][1,4]diazepin-6-yl)carbamate] | 410 | 1400

More lines, main results first:

DC50 [2] [pM] | SMILES | IC50 [1] [pM]
130 | Cc1sc2c(c1C)C(c1ccc(-c3cnc(C(=O)NCc4ccc(S(=O)(=O)Nc5ccc(C)c6c(C#N)c[nH]c56)cc4)nc3)cc1)=N[C@@H](CC(=O)OC(C)(C)C)c1nnc(C)n1-2 [Example Compound 147, t-butyl [(6S)-4-(4-{2-[({4-[(3-cyano-4-methyl-1H-indol-7-yl)sulfamoyl]phenyl}methyl)carbamoyl]pyrimidin-5-yl}phenyl)-2,3,9-trimethyl-6H-thieno[3,2-f][1,2,4]triazolo[4,3-a][1,4]diazepin-6-yl]acetate] | 420
510 | Cc1sc2c(c1C)C(c1ccc(-c3ccc(C(=O)NCc4ccc(S(=O)(=O)Nc5ccc(C)c6c(C#N)c[nH]c56)cc4)cc3F)cc1)=N[C@@H](CC(=O)OC(C)(C)C)c1nnc(C)n1-2 [Example Compound 142, t-butyl [(6S)-4-{4′-[({4-[(3-cyano-4-methyl-1H-indol-7-yl)sulfamoyl]phenyl}methyl)carbamoyl]-2′-fluoro[1,1′-biphenyl]-4-yl)-2,3,9-trimethyl-6H-thieno[3,2-f][1,2,4]triazolo[4,3-a][1,4]diazepin-6-yl]acetate] | 1300
6700 | COC(=O)C[C@@H]1N=C(c2ccc(C3=CCN(C(=O)NCc4ccc(S(=O)(=O)Nc5ccc(C)c6c(C#N)c[nH]c56)cc4)CC3)cc2)c2c(sc(C)c2C)-n2c(C)nnc21 [Example 21, methyl [(6S)-4-(4-{1-[({4-[(3-cyano-4-methyl-1H-indol-7-yl)sulfamoyl]phenyl}methyl)carbamoyl]-1,2,3,6-tetrahydropyridin-4-yl}phenyl)-2,3,9-trimethyl-6H-thieno[3,2-f][1,2,4]triazolo[4,3-a][1,4]diazepin-6-yl]acetate] | 9800
120 | Cc1sc2c(c1C)C(c1ccc(-c3ccc(C(=O)NCc4ccc(S(=O)(=O)Nc5ccc(C)c6c(C#N)c[nH]c56)cc4)nn3)cc1)=N[C@@H](CC(=O)OC(C)(C)C)c1nnc(C)n1-2 [Example Compound 150, t-butyl [(6S)-4-(4-{6-[({4-[(3-cyano-4-methyl-1H-indol-7-yl)sulfamoyl]phenyl}methyl)carbamoyl]pyridazin-3-yl}phenyl)-2,3,9-trimethyl-6H-thieno[3,2-f][1,2,4]triazolo[4,3-a][1,4]diazepin-6-yl]acetate] | 430
5600 | Cc1sc2c(c1C)C(c1ccc(-c3ccc(C(=O)NCc4ccc(S(=O)(=O)Nc5ccc(C)c6c(C#N)c[nH]c56)cc4)cc3)cc1)=N[C@@H](CC(=O)N(C)C)c1nnc(C)n1-2 [Example 38, N-({4-[(3-cyano-4-methyl-1H-indol-7-yl)sulfamoyl]phenyl}methyl)-4′-{(6S)-6-[2-(dimethylamino)-2-oxoethyl]-2,3,9-trimethyl-6H-thieno[3,2-f][1,2,4]triazolo[4,3-a][1,4]diazepin-4-yl}[1,1′-biphenyl]-4-carboxamide] | 5800
250 | COC(=O)C[C@@H]1N=C(c2ccc(-c3cc(C)c(C(=O)NCc4ccc(S(=O)(=O)Nc5ccc(C)c6c(C#N)c[nH]c56)cc4)cc3F)cc2)c2c(sc(C)c2C)-n2c(C)nnc21 [Example 83, methyl [(6S)-4-{4′-[({4-[(3-cyano-4-methyl-1H-indol-7-yl)sulfamoyl]phenyl}methyl)carbamoyl]-2′-fluoro-5′-methyl[1,1′-biphenyl]-4-yl}-2,3,9-trimethyl-6H-thieno[3,2-f][1,2,4]triazolo[4,3-a][1,4]diazepin-6-yl]acetate] | 330
15000 | COC(=O)C[C@@H]1N=C(c2ccc(C#CC(=O)NCc3ccc(S(=O)(=O)Nc4ccc(C)c5c(C#N)c[nH]c45)cc3)cc2)c2c(sc(C)c2C)-n2c(C)nnc21 [Example 5, methyl [(6S)-4-(4-{3-[({4-[(3-cyano-4-methyl-1H-indol-7-yl)sulfamoyl]phenyl}methyl)amino]-3-oxoprop-1-yn-1-yl}phenyl)-2,3,9-trimethyl-6H-thieno[3,2-f][1,2,4]triazolo[4,3-a][1,4]diazepin-6-yl]acetate] | 4100
590 | Cc1cc(C(=O)NCc2ccc(S(=O)(=O)Nc3ccc(C)c4c(C#N)c[nH]c34)cc2)ccc1-c1ccc(C2=N[C@@H](CC(=O)OC(C)(C)C)c3nnc(C)n3-c3sc(C)c(C)c32)cc1 [Example Compound 144, t-butyl [(6S)-4-{4′-[({4-[(3-cyano-4-methyl-1H-indol-7-yl)sulfamoyl]phenyl}methyl)carbamoyl]-2′-methyl[1,1′-biphenyl]-4-yl}-2,3,9-trimethyl-6H-thieno[3,2-f][1,2,4]triazolo[4,3-a][1,4]diazepin-6-yl]acetate] | 1200
250 | CCc1ccc(NS(=O)(=O)c2ccc(CNC(=O)c3ccc(-c4ccc(C5=N[C@@H](CC(=O)OC)c6nnc(C)n6-c6sc(C)c(C)c65)cc4)cc3F)cc2)c2[nH]cc(C#N)c12 [Example 112, methyl [(6S)-4-{4′-[({4-[(3-cyano-4-ethyl-1H-indol-7-yl)sulfamoyl]phenyl}methyl)carbamoyl]-3′-fluoro[1,1′-biphenyl]-4-yl}-2,3,9-trimethyl-6H-thieno[3,2-f][1,2,4]triazolo[4,3-a][1,4]diazepin-6-yl]acetate] | 440
380 | Cc1sc2c(c1C)C(c1ccc(-c3ccc(C(=O)NCc4ccc(S(=O)(=O)Nc5ccc(C)c6c(C#N)c[nH]c56)cc4)c(Cl)c3)cc1)=N[C@@H](CC(=O)OC(C)(C)C)c1nnc(C)n1-2 [Example Compound 140, t-butyl [(6S)-4-{3′-chloro-4′-[({4-[(3-cyano-4-methyl-1H-indol-7-yl)sulfamoyl]phenyl}methyl)carbamoyl][1,1′-biphenyl]-4-yl}-2,3,9-trimethyl-6H-thieno[3,2-f][1,2,4]triazolo[4,3-a][1,4]diazepin-6-yl]acetate] | 520
